Assay results from ChEMBL document CHEMBL1139775, “A novel ketolide class: Synthesis and antibacterial activity of a lead compound” (2007).
Values after ≈ are worked out from the molar mass of the structure shown.

Columns and labels:
Assay type in all cases: functional
[1] = test system: Moraxella catarrhalis; test: Antibacterial activity against Moraxella catarrhalis ATCC 23246
[2] = test system: Streptococcus pneumoniae; test: Antibacterial activity against erythromycin-sensitive Streptococcus pneumoniae
[3] = test system: Streptococcus pneumoniae; test: Antibacterial activity against Streptococcus pneumoniae 4636 MLSc
[4] = test system: Staphylococcus aureus; test: Antibacterial activity against erythromycin-sensitive Staphylococcus aureus ATCC 13709
[5] = test system: Streptococcus pneumoniae; test: Antibacterial activity against Streptococcus pneumoniae CI137 M
[6] = test system: Streptococcus pyogenes; test: Antibacterial activity against erythromycin-sensitive Streptococcus pyogenes 3565
[7] = test system: Streptococcus pyogenes; test: Antibacterial activity against Streptococcus pyogenes MLSi
[8] = test system: Escherichia coli; test: Antibacterial activity against Escherichia coli ATCC 25922
[9] = test system: Haemophilus influenzae; test: Antibacterial activity against Haemophilus influenzae ATCC 49247
[10] = test system: Staphylococcus aureus; test: Antibacterial activity against […] MLSc
[11] = test system: Streptococcus pyogenes; test: Antibacterial activity against Streptococcus pyogenes M

Row | SMILES | MIC [1] [µg/mL] | MIC [2] [µg/mL] | MIC [3] [µg/mL] | MIC [4] [µg/mL] | MIC [5] [µg/mL] | MIC [6] [µg/mL] | MIC [7] [µg/mL] | MIC [8] [µg/mL] | MIC [9] [µg/mL] | MIC [10] [µg/mL] | MIC [11] [µg/mL]
1 | CC[C@H]1OC(=O)[C@H](C)[C@@H](O[C@H]2C[C@@](C)(OC)[C@@H](O)[C@H](C)O2)[C@H](C)[C@@H](O[C@@H]2O[C@H](C)C[C@H](N(C)C)[C@H]2O)[C@](C)(OC)C[C@@H](C)C(=O)[C@H](C)[C@@H](O)[C@]1(C)O [CLARITHROMYCIN] | ≤ 0.25 | ≤ 0.06 | > 128 | 0.25 (≈ 0.334 µM) | 8 (≈ 10.7 µM) | ≤ 0.06 | 2 (≈ 2.67 µM) | 64 (≈ 85.6 µM) | 8 (≈ 10.7 µM) | > 32 | 2 (≈ 2.67 µM)
2 | CC[C@@H]1OC(=O)[C@H](C)C(=O)[C@H](C)[C@@H](O[C@@H]2O[C@H](C)C[C@H](N(C)C)[C@H]2O)[C@@](C)(OC)C[C@@H](C)C(=O)[C@H](C)[C@H]2NC(=O)O[C@]12C | 0.12 (≈ 0.196 µM) | 0.06 (≈ 0.0979 µM) | > 128 | 0.25 (≈ 0.408 µM) | 0.25 (≈ 0.408 µM) | 0.06 (≈ 0.0979 µM) | 0.06 (≈ 0.0979 µM) | 64 (≈ 104 µM) | 16 (≈ 26.1 µM) | > 128 | 0.25 (≈ 0.408 µM)
3 | CC[C@@H]1OC(=O)[C@H](C)C(=O)[C@H](C)[C@@H](O[C@@H]2O[C@H](C)C[C@H](N(C)C)[C@H]2O)[C@@](C)(OC)C[C@@H](C)C(=O)[C@H](C)[C@H]2CC(=O)O[C@]12C | 0.5 (≈ 0.817 µM) | ≤ 0.06 | > 128 | 0.5 (≈ 0.817 µM) | 0.12 (≈ 0.196 µM) | 0.12 (≈ 0.196 µM) | 0.5 (≈ 0.817 µM) | 128 (≈ 209 µM) | 16 (≈ 26.2 µM) | > 128 | 0.12 (≈ 0.196 µM)
